The test system of data set [1] is Raw264.7 cells. Kind of data set: Cytotoxicity of D-pinitol on Raw264.7 cells (cell number count). Type of data set: cell-based. As to conditions: 0-50 mM, cell number counted for 3 days at 24 hrs intervals; up to maximum 50 mM. The method, then: To verify the cytotoxicity of D-pinitol to Raw264.7 cell, Raw264.7 cells were grown on 96-well plate until 0.5×10^3 cells/200 μl. Cells were cultured for 3 days while treating with D-pinitol at concentrations of 1, 3.5, 7, 12.5, 25 and 50 mM respectively. Cell number increased during 3 days of culture was counted to determine the cytotoxicity of added compounds.
The present inventors examined the cytotoxicity of D-pinitol at various concentrations. Influence of D-pinitol to cell proliferation was examined by treating Raw264.7 cells with various concentrations of D-pinitol. Osteoclast progenitor cell line, Raw264.7 cells were cultured and treated with D-pinitol in a range of 0-50 mM concentration. The number of survived cells was counted for 3 days at 24 hrs intervals.

Data set [2] has as its system bone marrow-derived hematopoietic stem cells. Kind of data set: Cytotoxicity of D-pinitol on bone marrow hematopoietic stem cells (CCK8). The data set is classed as cell-based, mouse. As for the experimental part:
To investigate the cytotoxicity of D-pinitol to a bone marrow cell, bone marrow cells were adjusted to 1.0×10^5 cells/200 μl on 96-well plate and co-cultured with 50 ng/ml of M-CSF. Then, cultured cells were grown for 4 days while treating with D-pinitol at concentrations of 1, 3.5, 7, 12.5, 25 and 50 mM respectively. Cytotoxicity was measured using CCK8 kit (Cell Counting Kit-8, Dojindo, Japan). 10% CCK8 solution was added to culture solutions according to each culture time and incubated for 2 hrs at 37° C. After culturing, an absorbance was measured at 450 nm using Microplate reader (Bio-Rad).
To extract mouse bone marrow cells, thighbone and shinbone of male C57BL/6 mouse at 3-4 weeks of age were aseptically enucleated and their soft tissues were eliminated. Both end of long bone was cut in extracted bone tissues and then bone marrow cells were collected by injecting α-MEM/10% FBS into bone marrow cavity at one end using a 26G injection syringe. Collected bone marrow cells were subjected to 5 ng/ml of M-CSF and incubated for 16 hrs. Unattached cells on plate bottom were harvested.
The instant inventors examined the cytotoxicity of D-pinitol on hematopoietic stem cells. […] After that, the proliferation-induced cells were treated with D-pinitol at a range of 0-50 mM and the effect of D-pinitol on cell proliferation was determined by measuring CCK8 enzyme activity. […]

For data set [3], the system named is Raw264.7 cells. Kind of data set: Osteoclastogenesis of Raw264.7 cells, TRAP staining. The data set is classed as cell-based. As for the experimental part:
Raw264.7 cells were cultured in α-MEM (α-minimal essential medium) containing 10% FBS (fetal bovine serum). In the experiment of examining osteoclastogenesis, cells were adjusted to 2.0×10^3 cells/200 μl on 96-well plate and incubated with 200 ng/ml of sRANKL. TRAP (tartrate resistant acid phophatase) staining and TRAP solution assay were carried out at forth day after culturing cells for 3 days with treatment of D-pinitol at concentrations of 1, 3.5, 7, 12.5, 25 and 50 mM respectively. Cells were fixed for TRAP staining and TRAP solution assay. TARP positive multinuclear (more than 3 nuclei) cells were counted as an osteoclast-like cell. Cells were observed using Leica DM IRM microscope. For cytochemical staining of TRAP positive cell, medium was removed. After that, 100 μl of 10% formalin was added to cells and incubated for 10 min at room temperature. 100 μl of methanol/acetone was added and incubated for 1 min at room temperature. Cells were stained with 10 ml of TRAP buffer (Tris-HCl, pH 4.5, EDTA), naphthol AS phosphate (substrate, Sigma #N-4875) and 5 mg of Fast Red Violet dye (Sigma, F-1625). 1 mg of naphthol AS phosphate dissolved in […] of N, N-dimethyl formide (DMF, Sigma #319937) was used. The reaction was performed for 10-30 min and then red color was observed. Where red color is clearly observed, it was washed with flowing water and dried. […] Raw264.7 cell line was treated with 200 ng/ml of RankL for 4 days. […] To quantitate inhibitory activity of D-pinitol in osteoclastogenesis of Raw264.7 cells, multinucleate cell number was measured via TRAP staining according to various treatment concentration of D-pinitol. […] Therefore, it could be understood that D-pinitol was a substance to inhibit osteoclastogenesis of Raw264.7 cell. D-pinitol inhibited osteoclastogenesis almost 100% at a concentration of 50 mM.

Data set [4] relates to Raw264.7 cells. Kind of data set: Osteoclastogenesis of Raw264.7 cells, TRAP solution assay. The data set is classed as cell-based. The following applies: RankL. The method, then: Raw264.7 cells were cultured in α-MEM (α-minimal essential medium) containing 10% FBS (fetal bovine serum). In the experiment of examining osteoclastogenesis, cells were adjusted to 2.0×10^3 cells/200 μl on 96-well plate and incubated with 200 ng/ml of sRANKL. TRAP (tartrate resistant acid phophatase) staining and TRAP solution assay were carried out at forth day after culturing cells for 3 days with treatment of D-pinitol at concentrations of 1, 3.5, 7, 12.5, 25 and 50 mM respectively. Cells were fixed for TRAP staining and TRAP solution assay. TARP positive multinuclear (more than 3 nuclei) cells were counted as an osteoclast-like cell. Cells were observed using Leica DM IRM microscope. TRAP solution assay of TRAP positive cells were carried out according to the following method. Medium was removed, 100 μl of 10% formalin was added and incubated for 10 min at room temperature. After 100 μl of methanol/acetone was added, incubated for 1 min at room temperature, and then dried. TRAP substrate solution comprising a tablet of pNPP (p-nitrophenylphosphate) dissolved in 20 ml of TRAP buffer (pH 5.2) was added into and incubated for 20-30 min at 37° C. 100 μl of TRAP substrate solution was transferred to a new 96-well plate in which 50 μl of 1N NaOH was contained. Finally, OD (optical density) value was measured at 405 nm. […]

For data set [5], the system named is bone marrow-derived osteoclast. Kind of data set: Differentiation of bone marrow-derived osteoclast, TRAP staining. The data set is classed as cell-based, mouse. The method, then: For cytochemical staining of TRAP positive cell, medium was removed. After that, 100 μl of 10% formalin was added to cells and incubated for 10 min at room temperature. 100 μl of methanol/acetone was added and incubated for 1 min at room temperature. Cells were stained with 10 ml of TRAP buffer (Tris-HCl, pH 4.5, EDTA), naphthol AS phosphate (substrate, Sigma #N-4875) and 5 mg of Fast Red Violet dye (Sigma, F-1625). 1 mg of naphthol AS phosphate dissolved in […] of N, N-dimethyl formide (DMF, Sigma #319937) was used. The reaction was performed for 10-30 min and then red color was observed. Where red color is clearly observed, it was washed with flowing water and dried. […] To extract mouse bone marrow cells, thighbone and shinbone of male C57BL/6 mouse at 3-4 weeks of age were aseptically enucleated and their soft tissues were eliminated. Both end of long bone was cut in extracted bone tissues and then bone marrow cells were collected by injecting α-MEM/10% FBS into bone marrow cavity at one end using a 26G injection syringe. Collected bone marrow cells were subjected to 5 ng/ml of M-CSF and incubated for 16 hrs. Unattached cells on plate bottom were harvested. For the induction of the differentiation of bone marrow-derived osteoclast, bone marrow cells of 1.0×10^5 cells per well were cultured with α-MEM/10% FBS in the presence of 200 ng/ml of sRANKL and 50 ng/ml of M-CSF. D-pinitol was added to media at various concentrations during culture. Three experiments were carried out at each concentration and media were replaced at third day after grown in complete media containing sRANKL, M-CSF and D-pinitol. […] To investigate the effect of D-pinitol on the osteoclast differentiation from bone marrow-derived monocyte, hematopoietic stem cells were extracted from bone marrow and activated for 1 day by M-CSF (5 ng/ml), resulting in induction of the differentiation into mononuclear cells. […] To quantitate the effect of D-pinitol in osteoclatogenesis of bone marrow-derived monocyte, osteoclast cell number within sample was measured using TRAP staining. […]

The subject of data set [6] is bone marrow-derived osteoclast. Kind of data set: Differentiation of bone marrow-derived osteoclast, TRAP solution assay. The data set is classed as cell-based, mouse. As for the experimental part: TRAP solution assay of TRAP positive cells were carried out according to the following method. Medium was removed, 100 μl of 10% formalin was added and incubated for 10 min at room temperature. After 100 μl of methanol/acetone was added, incubated for 1 min at room temperature, and then dried. TRAP substrate solution comprising a tablet of pNPP (p-nitrophenylphosphate) dissolved in 20 ml of TRAP buffer (pH 5.2) was added into and incubated for 20-30 min at 37° C. 100 μl of TRAP substrate solution was transferred to a new 96-well plate in which 50 μl of 1N NaOH was contained. Finally, OD (optical density) value was measured at 405 nm. To extract mouse bone marrow cells, thighbone and shinbone of male C57BL/6 mouse at 3-4 weeks of age were aseptically enucleated and their soft tissues were eliminated. Both end of long bone was cut in extracted bone tissues and then bone marrow cells were collected by injecting α-MEM/10% FBS into bone marrow cavity at one end using a 26G injection syringe. Collected bone marrow cells were subjected to 5 ng/ml of M-CSF and incubated for 16 hrs. Unattached cells on plate bottom were harvested. […] To determine inhibitory effect of D-pinitol on osteoclastogenesis, osteoclast derived from bone marrow primary cells was analyzed using TRAP solution assay.

The subject of data set [7] is co-culture of osteoblast and bone marrow-derived osteoclast. Kind of data set: Osteoclastogenesis in co-culture of osteoblast and bone marrow cells, TRAP staining. The data set is classed as cell-based, mouse. The method, then: To prepare a primary osteoblast of mice, frontal bone and parietal bone of fetal mice at 1 day of age were aseptically enucleated. After washing enucleated bone tissue with PBS solution, it was subsequently treated with mixed-enzyme solution (0.2% collagenase and 0.1% dispase) 6 times at 20 min intervals. Cells having the property of osteoblast were harvested and then washed with culture solution. Washed cells were cultured in α-MEM containing 10% serum for 3 days and used as a primary osteoblast. Co-culture was carried out in a manner that 1.0×10^4 cells/200 μl of osteoblast and 1.0×10^5 cells of bone marrow cells were cultured on 96-well plate with vitamin D3 (10^−6M) and prostagrandin E2 (PGE2, 10^−8M) for 5 days. After culturing, TRAP staining was performed. Osteoblast was extracted from mouse skull and then co-cultured with hematopoietic stem cells of bone marrow in order to induce the differentiation of osteoclast. The effect of D-pinitol on osteoclastogenesis was investigated by treating cells with D-pinitol with a range of 0-50 mM during the differentiation-inducing process.

Data set [8] deals with bone marrow-derived osteoclast. Kind of data set: Osteoclast differentiation in respective stages of osteoclastogenesis. As to conditions: from 2 days after culture, not less than 25 mM. Type of data set: cell-based, mouse. The method, then: To examine the effect of D-pinitol on osteoclast at each stage of culturing, D-pinitol was added to the culture media of osteoclast with various concentrations. D-pinitol-treated osteoclast was separated at each cultured time and then amount of differentiated osteoclast was analyzed using TRAP solution assay. To analyze the effect of D-pinitol on respective stages of differentiation of bone marrow-derived osteoclast, the differentiation state of osteoclast, which has been cultured in the presence of various concentration of D-pinitol, was estimated in a time-dependent course. […] It could be also understood that D-pinitol affects in the cell-fusion stage of the osteoclastogenesis.

In data set [9] the test system is bone marrow-derived osteoclast. Kind of data set: Bone resorption-degradative potential of osteoclast on bone fragments (toluidine blue staining). The data set is classed as cell-based, mouse. The method, then: To examine the effect of D-pinitol on degradative potential of osteoclast in the bone resorption process, fragment of tooth bone was added in 96-well plate and then bone marrow cells were cultured until 1.0×10^5 cells/200 μl. For the differentiation of osteoclast, 50 ng/ml of M-CSF and 200 ng/ml of sRANKL were added. D-pinitol was added to the media in a concentration-dependent manner and incubated for 4 days. Where the differentiation of osteoclast was observed after completing the culture, cells were removed in bone fragment and observed in microscope via 1% toluidine blue staining. To investigate the effect of D-pinitol on the bone resorption-degradative potential of osteoclast, cells were treated with D-pinitol in the range of 0-50 mM during the differentiation into osteoclast on bone fragments which were obtained from human teeth.

As usually defined, the inhibition is the drop in the measured response relative to a control, in per cent. As to `COC1C(O)C(O)C(O)C(O)C1O` [D-pinitol], the Raw264.7 cell cytotoxicity entry in data set [1] is “not observed”. In addition, the “effect on CCK8 activity” value in data set [2] (0-50 mM, M-CSF 50 ng/ml) is “no effect”. Also, the “influence on proliferation of hematopoietic stem cells” value in [2] (not more than 50 mM) is listed as “no influence”. Also, the inhibition at 50000 µM was approximately 100% in data set [3] (Mus musculus, RAW264.7, 50 mM, multinucleate cell count by TRAP staining) and approximately 100% in data set [5] (Mus musculus, Osteoclast, 50 mM, bone marrow-derived monocyte, read-out: inhibition of osteoclastogenesis). Further, in data set [3] (RankL 200 ng/ml, 4 days, increasing concentration up to 50 mM), the “osteoclastogenesis (TRAP staining photographs)” value is “significantly impaired”. In addition, the multinucleate cell number entry in data set [3] (RankL 200 ng/ml, increasing concentration of D-pinitol) is listed as “significantly decreased”. Besides, in [4], the “inhibitory activity in TRAP solution assay versus counting multinucleate cell number” value is listed as “relatively weaker”. For the same compound, the “number of TRAP-stained osteoclast” value in data set [5] (0-50 mM, RankL 200 ng/ml and M-CSF 50 ng/ml, 4 days) was “decreased in proportion to the concentration”. Further, in [5] (TRAP staining count), the “concentration from which a remarkable decrease of multinucleate cell number was observed” value came to 25 mM. In addition, in data set [6], the “inhibitory effect on differentiation of bone marrow-derived osteoclast” value is “also observed”. For the same compound, the “cell number of multinucleated osteoclast” value in [7] (0-50 mM, increasing concentration) is listed as “significantly decreased”. Also, the osteoclastogenesis entry in data set [7] (50 mM) was “clearly inhibited”. Moreover, the “differentiation of bone marrow-derived osteoclast” value in data set [8] is recorded as “remarkably inhibited”. Also, the “bone resorption-degradative potential of osteoclast” value in [9] (0-50 mM, increasing concentration, bone fragments from human teeth) was “remarkably decreased”; in [9] (not less than 25 mM), “dramatically decreased”.
